From article PMC7949139, “The molecular basis of OH-PCB estrogen receptor activation” (The Journal of Biological Chemistry, 2021)
pEC50, pKd, pKi: −log10 of the molar value. Read-outs that look alike come from different tables or passages of the source.

Experiments:
WT SULT1E1 = biological target: T1, WT SULT1E1 (Homo sapiens, UniProt P49888); assay: Initial-rate studies (1-HP sulfonation; OH-PCB inhibition), WT enzyme; assay type: biochemical
T1 construct: E. coli codon-optimized SULT1E1 coding region inserted into the PreScission Protease cleavage site; His/GST/MBP triple tag (N, cleaved yes); made in house; host or cells: E. coli BL21(DE3)
T1 sequence (P49888 1-294): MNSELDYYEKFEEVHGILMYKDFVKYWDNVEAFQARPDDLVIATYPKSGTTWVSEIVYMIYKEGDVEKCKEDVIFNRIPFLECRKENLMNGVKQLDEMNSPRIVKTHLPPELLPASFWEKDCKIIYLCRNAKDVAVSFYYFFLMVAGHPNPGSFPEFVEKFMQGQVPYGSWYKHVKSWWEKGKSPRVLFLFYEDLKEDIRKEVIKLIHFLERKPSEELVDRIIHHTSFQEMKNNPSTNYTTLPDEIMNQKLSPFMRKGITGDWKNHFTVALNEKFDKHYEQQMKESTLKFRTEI
Description: C. Reaction progress was monitored via the fluorescence change associated with 1-HP sulfonation (λex = 325 nm, λem = 370 nm ([51], [52])). Initial rates were measured during conversion to product of ≤5% of the concentration-limiting substrate consumed at the reaction endpoint. Velocities were determined in triplicate. Km and kcat were obtained by (1/v^4)-weighted least-squares fitting of the averaged data in double-reciprocal space (i.e., 1/v versus 1/[S]) ([66], [67]).
Inhibition studies were performed as described above except: 1-HP was fixed (2.0 μM, 100 × Km), OH-PCBs were added (0.20–20 × Ki), and SULT1E1 was 0.20 nM (active sites). Ki was determined by least-squares fitting to a noncompetitive inhibition model ([66], [67]).

SULT1E1 = biological target: T2, SULT1E1 (Homo sapiens, UniProt P49888); assay: Equilibrium binding studies (SULT1E1 intrinsic fluorescence); conditions: for pKd: pH 7.4, 25 °C, spread = one SD
T2 construct: E. coli codon-optimized SULT1E1 coding region inserted into the PreScission Protease cleavage site; His/GST/MBP triple tag (N, cleaved yes); made in house; host or cells: E. coli BL21(DE3)
T2 sequence (P49888 1-294): T1 sequence (P49888 1-294)
Description: The binding of inhibitors to WT and mutant SULT1E1 was monitored via ligand-induced changes in the intrinsic fluorescence of the enzyme (λex= 290 nm, λem= 340 nm) ([4]). […] C. Titrations were performed in triplicate and the averaged data were least-squares fit to the following quadratic, single-site binding model: Io − ΔI∙(([L]+Etot + Kd) − [([L]+Etot + Kd)^2 − (4∙[L]∙Etot)]^1/2)/2∙Etot, where Io and ΔI represent fluorescent intensity at zero and infinite [L].

[1] = test system: estrogen receptor (ER) activation in (-) SULT1E1 control Ishikawa cells; assay: Estrogen receptor activation (alkaline phosphatase activity), control strain; assay type: cell-based; conditions: Homo sapiens, Control cell line, OH-PCB titration at 10 nM E2 (footnote a), NE = No Effect, read-out: Ligand EC50, ER activation
Description: pcDNA 3.1 constructs harboring either the SULT1E1 WT or double mutant (F75A/F80A) coding regions were generated using Gibson Assembly ([74]). The vectors were linearized using BGIII. Ishikawa cells were grown at 37 °C ± 2 deg. C in growth medium (MEM media containing 10% v/v FBS). At confluence, the cells were washed (3×) with PBS media before coating with an Opti-MEM solution containing a linearized construct (50 ng μg^−1) and lipofectamine (2.5 units ml^−1). After 24 h at 37 °C ± 2 deg. C, cells were washed (3×) with PBS before adding growth medium containing neomycin (400 μg ml^−1) to select transfectants. Selective growth medium was replenished every 48 h until single colonies could be isolated (∼3–6 weeks). Single colonies were transferred using trypsin digest (0.05%) to 12-well plates and grown at 37 °C ± 2 deg. C to confluence for further experimentation and storage.
Transfected Ishikawa cells were grown at 37 °C ± 2 deg. C to 60 to 70% confluency in MEM containing 10% v/v FBS. Cells were then transferred to 96-well tissue culture plates and grown at 37 °C ± 2 deg. C to 80% confluency in MEM containing 10% v/v charcoal filtered FBS. The plate was then washed with PBS and grown at 37 °C ± 2 deg. C for 24 h in MEM without FBS. Estradiol (0–3.0 μM) and OH-PCB (0–1.0 μM) solubilized in neat DMSO were added and cells were incubated at 37 °C ± 2 deg. C for 5 days. The final concentrations of DMSO were ≤0.10%. Cells were then washed twice with PBS before adding pNpp (5.0 mM) in PBS ([75]). Following incubation with pNpp for 3 h at 25 °C ± 2 deg. C, wells were read at 405 nm using a Synergy HT BioTek Plate Reader.

Oc1ccc(-c2c(Cl)cccc2Cl)cc1 [OH-PCB1, 4ʹ-OH-2,6-dichlorobiphenol]
Fold Effect = Ki OH-PCB1/Ki OH-PCB1 WT (WT SULT1E1; WT): 1.0 | pKi (WT SULT1E1; WT SULT1E1, Table 1, parentheses = one SD, read-out: Ki OH-PCB1): 7.22 | pKd (SULT1E1; E2 4.0 μM (higher partner concentration), PAP 300 μM, read-out: Kd, ligand binding to enzyme species E⋅PAP⋅E2): 7.21 | pKd (SULT1E1; E2 4.0 μM, no PAP, read-out: Kd, ligand binding to enzyme species E⋅E2): 7.18 | fold tighter binding in the presence of the partner ligand (OH-PCB1/E2 interaction) (SULT1E1; OH-PCB1: E⋅E2 versus E, E2: E⋅PAP⋅OH-PCB1 versus E⋅PAP): ~12 fold | pKd (SULT1E1; PAP 300 μM, read-out: Kd, ligand binding to enzyme species E⋅PAP): 6.11 | pKd (SULT1E1; free enzyme E, read-out: Kd, ligand binding to enzyme species E): 6.12 | pEC50 [1]: < 6.00
